Laboratory results published in patent US4022842A, “Bibenzyl compounds” (Rikagaku Kenkyusho, priority 1972, dated 1977).
Values after ≈ are worked out from the molar mass of the structure shown. Read-outs that look alike come from different tables or passages of the source.

Legend:
oats coleoptile = test: Growth inhibition in oats coleoptile sections (Example 4, Table 1); parameters: species or system Avena sativa L.; details: for IC50: Avena sativa
Protocol: A compound illustrated in Table 1 was dissolved in dimethylformamide and the solution was diluted to desired concentrations with water containing 2% of sucrose. In control test dimethylformamide was applied in the same amount as that of treated groups. This solvent gives no phytotoxicity to plants to be tested if the content in water is 1% or less. The prepared liquors were poured into culture dishes of 3 cm diameter, the amount of the medium poured into one dish being 2 ml. Sections of 5 mm in length cut from a coleoptiles of oats (Avena sativa L.) which have been grown in the dark were floated on the test media in the culture dishes and cultured at 25° C. for 20 hours in the dark to determine the growth-inhibition degrees.
In the control group, the coleoptile elongated by about 5 mm during the experiment.

lettuce seeds = test: Inhibition of germination of lettuce seeds, 50% inhibition (Example 5, Table 2); type: in vivo, Lactuca sativa L.; details: 1% dimethylformamide; for IC50: Lactuca sativa, 48 h
Protocol: Every compound shown in Table 1 was respectively dissolved at various concentrations in distilled water containing 1% of dimethylformamide, and 3 ml each of the resulting solutions was poured into a culture dish of 6 cm diameter in which 2 filter papers were spread. About 100 seeds (non-dormant ware head seeds) of lettuce (Lactuca sativa L.) were shown in each dish, and they were allowed to stand at 23° C. in the dark for 2 days. Germination percentages were determined and plotted against the concentrations of the compound tested. From the graphs obtained the concentration to give 50% inhibition was determined. The definition of inhibition rate is given in the following formula: [formula] Usually the germination percentage of the untreated control lot was about 95%.

Bulbils of yam [1] = test: Germination (sprouting) of yam bulbils awakened from dormancy (Example 6, Table 3); type: in vivo, Dioscorea batatas Decne.; details: 300 μg/ml; 23° C., light of 1800 luxes, 2 weeks; untreated control 80
Protocol: Bulbils (fleshy buds for breeding formed on stems) of yam (Dioscorea batatas Decne.) were stored at a low temperature of 5° C. for 3 months and awakened from hibernation. These fleshy buds were treated with the agricultural chemical of this invention in the following manner to lead them to hibernation again.
Every active ingredient compound of this invention shown in the following Table 3 was dissolved emulsified in distilled water containing 1% of dimethylformamide and 0.05% of Tween 20. 25 ml of the resulting liquor was poured into a culture dish of 9 cm diameter in which absorbent cotton was spread, and 30 of bulbis which had been subjected to the above low temperature treatment and awakened from dormancy were sown on the dish and they were allowed to sprout at 23° C. under light of 1800 luxes for 2 weeks.

bulbils of yam [2] = test: Sprouting of yam bulbils in dark or light (Example 7, Table 4); type: in vivo, Discorea batatas Decne.; details: 23° C., 20 days
Protocol: 4-Hydroxy-2,6,7-trimethoxyphenanthrene and 3,3'-dihydroxy-5-methoxybibenzylwere respectively dissolved at various concentrations in water containing 0.05% of Tween 20, and 30 ml each of the resulting solutions were poured into culture dishes of 9 cm in diameter containing 1 g of absorbent cotton.
Thirty bulbils of yam (Discorea batatas Decne.) which had been awakened from dormancy were planted in each of the so arranged culture dishes, and the germination test was carried out at 23° C. either in the dark or in the light. […]

seeds of a lettuce = test: Germination ratio of lettuce seeds (Example 8, Table 5); type: in vivo, Lactuca sativa L.; details: for Germination Ratio: 23° C., 2 days, untreated control 90
Protocol: 4-Hydroxy-2,6,7-trimethoxyphenanthrene and 3,3'-dihydroxy-5-methoxybibenzylwere respectively dissolved in water containing 0.05% of Tween 20 and 1% of dimethylformamide, and each of the resulting solution was poured into a culture dish, 6 cm in diameter, in which 2 layers of filter paper were spread to form a germination bed. 100 seeds of a lettuce (Lactuca sativa L.) were sown on the germination bed and cultivation was conducted for 2 days at 23° C. […] [formula]

oats coleoptiles = test: Growth inhibition of oats coleoptile pieces with indoleacetic acid (Example 9, Table 6); parameters: species or system Avena sativa L.; details: Avena sativa, 18 h, read-out: Growth Inhibition ratio
Protocol: Oats (Avena sativa L.) were allowed to germinate under a weak red light at 25° C. and 3 days after germination sections of […] in length were cut from coleoptiles about 25 mm in length. 4-Hydroxy-2,6,7-trimethoxyphenanthrene or 3,3-dihydroxy-5-methoxybibenzyl was dissolved in a culture medium comprising 0.1 mg/l of indoleacetic acid, 0.05% of Tween 20 and 2% of sucrose, the balance being water. Ten of the above cut-out coleoptile pieces were flated on the resulting culture medium and cultivation was conducted at 25° C. for 18 hours to examine the growth state and the results shown in Table 6 were obtained.

Seedings of lettuce = test: Growth inhibition of lettuce seedling stems (hypocotyls) (Example 10, Table 7); type: in vivo, Lactuca sativa L.; details: Lactuca sativa, 72 h, read-out: Growth Inhibition Ratio
Protocol: 4-Hydroxy-2,6,7-trimethoxyphenanthrene or 3,3'-dihydroxy-5-methoxybibenzyl was dissolved in acetone, and the resulting solution was placed in culture dishes in which 2 layers of filter paper were spread so as to give required amounts of the test compound. After the acetone was removed by evaporation, Hoagland's nutrient solution containing 0.05% of Tween 20 was poured into the culture dishes. Seedings of lettuce (Lactuca sativa L.), which had been germinated in a different place, were transplanted to the culture dishes and cultivation was carried out in a light place at 23° C. for 3 days. Then, the lengths of the stems (hypocotyls) were measured to determined the growth inhibition ratio.

[3] = 20 h, read-out: Growth Inhibition in oats coleoptile (concentration giving 50% inhibition), 5 mm sections, 25° C., 20 hours, dark
[4] = read-out: Inhibition of Germination of Lettuce Seeds, Concentration Giving 50% Inhibition, 23° C., dark, 2 days
[5] = 5 mm sections, 25° C., 20 hours, dark, read-out: Growth Inhibition in oats coleoptile (concentration giving 50% inhibition)
[6] = 23° C., dark, 2 days, read-out: Inhibition of Germination of Lettuce Seeds, Concentration Giving 50% Inhibition

**Q.** Which IC50 (oats coleoptile; [3]) does the source give for `COc1cc(O)c2c(ccc3cc(OC)c(OC)cc32)c1` [Compound 10, 4-hydroxy-2,6,7-trimethoxyphenanthrene] here?
**A.** 90 µg/mL (≈ 317 µM)

**Q.** And the IC50 (lettuce seeds; [4])?
**A.** 60 µg/mL (≈ 211 µM)

**Q.** And the “Germination Ratio” value (Bulbils of yam [1])?
**A.** 45%

**Q.** What about the “Sprouting Ratio” value (bulbils of yam [2]; 100 mg/l, dark place, untreated control 56) of the same compound?
**A.** 46%

**Q.** And the “Sprouting Ratio” value (bulbils of yam [2]; 100 mg/l, light place, untreated control 44)?
**A.** 14%

**Q.** And the “Sprouting Ratio” value (bulbils of yam [2]; 300 mg/l, dark place, untreated control 56)?
**A.** 30%

**Q.** And the “Sprouting Ratio” value (bulbils of yam [2]; 300 mg/l, light place, untreated control 44)?
**A.** 8%

**Q.** What about the “Sprouting Ratio” value (bulbils of yam [2]; 1000 mg/l, dark place, untreated control 56) of the same compound?
**A.** 23%

**Q.** And the “Germination Ratio” value (seeds of a lettuce; 30 mg/l)?
**A.** 78%

**Q.** And the “Germination Ratio” value (seeds of a lettuce; 100 mg/l)?
**A.** 43%

**Q.** What about the “Germination Ratio” value (seeds of a lettuce; 300 mg/l) of the same compound?
**A.** 10%

**Q.** What about the “Blight of germination-inhibited seeds” value (seeds of a lettuce; after treatment) of the same compound?
**A.** not blighted

**Q.** And the “Germination after washing and transplanting” value (seeds of a lettuce; washed with water, transplanted on culture dish free of compound)?
**A.** complete germination

**Q.** What about the inhibition at 30 µg/mL (oats coleoptiles) of the same compound?
**A.** 16%

**Q.** What about the inhibition at 100 µg/mL (oats coleoptiles) of the same compound?
**A.** 44%

**Q.** And the inhibition at 300 µg/mL (oats coleoptiles)?
**A.** 79%

**Q.** And the inhibition at 30 µg/mL (Seedings of lettuce)?
**A.** 13%

**Q.** What about the inhibition at 100 µg/mL (Seedings of lettuce) of the same compound?
**A.** 45%

**Q.** What about the inhibition at 300 µg/mL (Seedings of lettuce) of the same compound?
**A.** 72%

**Q.** What does the source list for `COc1cc2ccc3cc(O)c(OC)c(OC)c3c2cc1O` [Compound 11, 2,6-dihydroxy-3,4,7-trimethoxyphenanthrene]?
**A.** IC50 (oats coleoptile; [5]): 100 µg/mL (≈ 333 µM); IC50 (lettuce seeds; [6]): 100 µg/mL (≈ 333 µM); Germination Ratio (Bulbils of yam [1]): 50%

**Q.** Which results are given for `COc1cc2ccc3cc(O)c(O)cc3c2c(O)c1OC` [Compound 12, 4,6,7-trihydroxy-2,3-dimethoxyphenanthrene]?
**A.** IC50 (oats coleoptile; [3]): 120 µg/mL (≈ 419 µM); IC50 (lettuce seeds; [4]): 140 µg/mL (≈ 489 µM)

**Q.** How did the “Growth Inhibition in oats coleoptile (concentration giving 50% inhibition)” value (oats coleoptile; 5 mm sections, 25° C., 20 hours, dark) turn out when `COc1cc(OC)c2c(ccc3ccc(O)cc32)c1` [Compound 13, 2,4-dimethoxy-6-hydroxyphenanthrene] was run?
**A.** 90 µg/mL

**Q.** What about the “Inhibition of Germination of Lettuce Seeds, Concentration Giving 50% Inhibition” value (lettuce seeds; 23° C., dark, 2 days) of the same compound?
**A.** 80 µg/mL

**Q.** And the “Germination Ratio” value (Bulbils of yam [1])?
**A.** 60%

**Q.** How did the IC50 (oats coleoptile; [3]) turn out when `CC(=O)c1cc2ccccc2c2cc(Cl)ccc12` [Compound 14, 6-chloro-9-acetylphenanthrene] was run?
**A.** 70 µg/mL (≈ 275 µM)

**Q.** What about the IC50 (lettuce seeds; [4]) of the same compound?
**A.** 30 µg/mL (≈ 118 µM)

**Q.** And the “Germination Ratio” value (Bulbils of yam [1])?
**A.** 70%

**Q.** Which IC50 (oats coleoptile; [5]) does the source give for `CC(=O)c1ccc2c(c1)CCc1cc(O)c(C(C)=O)cc1-2` [Compound 15, 7-hydroxy-2,6-diacetyl-9,10-dihydrophenanthrene] here?
**A.** 130 µg/mL (≈ 464 µM)

**Q.** What about the IC50 (lettuce seeds; [6]) of the same compound?
**A.** 80 µg/mL (≈ 285 µM)

**Q.** What does the source list for `Oc1cc(O)c2c(c1)CCc1cc(O)c(O)cc1-2` [Compound 16, 2,3,5,7-tetrahydroxy-9,10-dihydrophenanthrene]?
**A.** IC50 (oats coleoptile; [5]): 150 µg/mL (≈ 614 µM); IC50 (lettuce seeds; [6]): 160 µg/mL (≈ 655 µM)

**Q.** `COc1cc2c(cc1O)CCc1cc(OC)c(OC)c(O)c1-2` [Compound 17, 4,7-dihydroxy-2,3,6-trimethoxy-9,10-dihydrophenanthrene] was tested. Which IC50 (oats coleoptile; [5]) did it give?
**A.** 200 µg/mL (≈ 662 µM)

**Q.** And the IC50 (lettuce seeds; [6])?
**A.** 120 µg/mL (≈ 397 µM)

**Q.** What about the “Germination Ratio” value (Bulbils of yam [1]) of the same compound?
**A.** 40%

**Q.** Which results are given for `COc1cc(O)c2c(c1)CCc1cc(O)c(OC)cc1-2` [Compound 18, 4,7-dihydroxy-2,6-dimethoxy-9,10-dihydrophenanthrene]?
**A.** IC50 (oats coleoptile; [5]): 180 µg/mL (≈ 661 µM); IC50 (lettuce seeds; [6]): 160 µg/mL (≈ 588 µM)
